Literature values, collected in US20260007782A1, “PREPARATION METHOD FOR LIQUID COMPOSITION COMPRISING COMPOUND I AND USE IN MYOCARDIAL PERFUSION PET IMAGING” (SINOTAU PHARMACEUTICAL GROUP, priority 2022, published 2026).

Details: animals

CC(C)(C)n1ncc(OCc2cccc(Cn3cc(COCCOCC[18F])nn3)c2)c(Cl)c1=O [Compound I, 2-tert-butyl-4-chloro-5-((3-((4-((2-(2-fluoro[^18F]ethoxy)ethoxy)methyl)-1H-1,2,3-triazol-1-yl)methyl)benzyl)oxy)pyridazin-3(2H)-one]
cardiac uptake (15 minutes post-injection): high | liver uptake (15 minutes post-injection): low | heart-to-liver ratio (maintained after 60 minutes): favorable
